Test results from patent US20250326785A1, “SODIUM SALT AND ETHANOLAMINE SALT OF 23-HYDROXYTORMENTIC ACID” (HUYABIO International, LLC, priority 2024, published 2025).
Read-outs that look alike come from different tables or passages of the source.

Experiments:
[1] = Salt disproportionation study (slurry in water, XRPD of solids, pH of mother liquor); type: physicochemical
Experimental: The pH of the filtered mother liquor was 9.77.
Salt disproportionation studies of ethanolamine salt. […] The pH of the filtered mother liquor was 8.65.
Method: 40 mg of sodium salt of HBI-3808 having a XRPD of Pattern 2, was weighed into a 2 mL push cap vial and a stirrer bar added. 0.2 mL of water was added to the vial and the experiment was stirred for ca. 24 h at 25° C. After 24 h the slurry was filtered by centrifuge filtration and the recovered solids were analyzed by XRPD. The pH of the filtered mother liquor was measured.

[2] = Dynamic vapor sorption (DVS) analysis; type: physicochemical
Experimental: GC analysis indicated residual solvent contents of 2847 ppm methanol; and 27 ppm TBME. […] No residual methanol or TBME was detected due to signal over-lap. […] TG-DSC analysis indicated two weight losses. The first weight loss of 2.3 wt. % was observed between 20-170° C. […] In the DSC thermogram, three endothermic events were observed (FIG. 17I). […] FT-IR (FIG. 17J) and Raman spectra (FIG. 17K) were recorded for reference. […] XRPD pattern of the ethanolamine salt was retained post-DVS (FIG. 17N). […] However, at the end of the experiment the solids on the microscope slide had discolored (FIG. 17O).

[3] = for HPLC Conc.: 24 h, starting concentration 100 mg/mL; for HPLC Conc. / HPLC Conc./: based on free acid
Excerpt: pH-dependent solubility of the HBI- 3808 sodium salt of Pattern 2 was studied.
pH dependent solubility of the HBI- 3808 sodium salt of Pattern 5 was studied.

[4] = Stability study at 25° C./60% RH, 40° C./75% RH and 60° C. (XRPD, HPLC purity, impurity tracking); details: for XRPD: * = crystalline salt; for HPLC: based on free acid
Excerpt: Stability of HBI-3808 Sodium Salt Pattern 2 was studied over 13 weeks.
Table 2F presents impurity tracking results from a 13-week stability study of HBI-3808 sodium salt of Pattern 2. […]

[5] = 25° C./60% RH (open vial), 13 Weeks
[6] = 25° C./60% RH (open vial), 1 Week
[7] = 25° C./60% RH (open vial), 2 Weeks
[8] = 25° C./60% RH (open vial), 4 Weeks
[9] = 25° C./60% RH (open vial), 8 Weeks
[10] = 40° C./75% RH (open vial), 1 Week
[11] = 40° C./75% RH (open vial), 2 Weeks

pH of the filtered mother liquor [1]: 8.65
XRPD of recovered solids ([1]; ca. 24 h at 25° C.): no salt disproportionation had occurred
XRPD of recovered material post-DVS [2]: retained
water (mass) uptake ([2]; at 80% RH/25° C. (Pattern 2: second DVS cycle)): 3.0 wt. %
hygroscopicity ([2]; from water uptake at 80% RH, 25° C.): slightly hygroscopic
XRPD of recovered solids ([3]; FaSSGF): consistent with ethanolamine salt
final Measured pH ([3]; FaSSGF): 8.62
HPLC Conc. ([3]; FaSSGF, final pH 8.62): 57.2 mg/mL
XRPD pattern of recovered solids ([3]; FaSSGF, *** = crystalline salt): 1***
HPLC Conc./ ([3]; FaSSGF): 57.2 mg/mL
concentration ([3]; pH 1.2): < 1000 ng/mL
XRPD of recovered solids ([3]; target pH 1.2): Amorphous solids
HPLC Conc. ([3]; target pH 1.2 buffer): <0.001 mg/mL
HPLC Conc. ([3]; target pH 3.0 buffer): <0.001 mg/mL
XRPD pattern of recovered solids ([3]; target pH 3.0 buffer, ** = free acid): 1**
HPLC Conc. ([3]; target pH 4.0 buffer): <0.001 mg/mL
XRPD pattern of recovered solids ([3]; target pH 4.0 buffer, ** = free acid): 1**
XRPD of recovered solids ([3]; target pH 6.8): Amorphous solids
HPLC Conc. ([3]; target pH 6.8 buffer): 0.5 mg/mL
HPLC Conc./ ([3]; target pH 6.8 phosphate buffer): 0.5 mg/mL
XRPD of recovered solids ([3]; target pH 8.0): Amorphous solids
HPLC Conc. ([3]; target pH 8.0 buffer): 17.7 mg/mL
HPLC Conc./ ([3]; target pH 8.0 phosphate buffer): 17.7 mg/mL
HPLC/ % area [4, 5]: 97.4 % area
XRPD [4, 6]: 1*
HPLC [4, 6]: 97.3 % area
XRPD [4, 7]: 1*
HPLC [4, 7]: 97.3 % area
XRPD [4, 8]: 1*
HPLC [4, 8]: 97.5 % area
XRPD [4, 9]: 1*
HPLC [4, 9]: 97.0 % area
XRPD [4, 5]: 1*
HPLC [4, 5]: 97.3 % area
RRT 0.801 impurity ([4]; 25° C./60% RH, 1 week): 0.10 % area
RRT 0.970 impurity ([4]; 25° C./60% RH, 1 week): 0.10 % area
RRT 1.000 (HBI-3808) ([4]; 25° C./60% RH, 1 week): 97.31 % area
RRT 1.025 (Isomer of HBI-3808) ([4]; 25° C./60% RH, 1 week): 2.48 % area
Total Impurities ([4]; 25° C./60% RH, 1 week): 2.69 % area
RRT 0.970 impurity ([4]; 25° C./60% RH, 2 weeks): 0.12 % area
RRT 1.000 (HBI-3808) ([4]; 25° C./60% RH, 2 weeks): 97.29 % area
RRT 1.025 (Isomer of HBI-3808) ([4]; 25° C./60% RH, 2 weeks): 2.39 % area
RRT 1.935 impurity ([4]; 25° C./60% RH, 2 weeks): 0.20 % area
Total Impurities ([4]; 25° C./60% RH, 2 weeks): 2.71 % area
RRT 0.970 impurity ([4]; 25° C./60% RH, 4 weeks): 0.11 % area
RRT 1.000 (HBI-3808) ([4]; 25° C./60% RH, 4 weeks): 97.47 % area
RRT 1.025 (Isomer of HBI-3808) ([4]; 25° C./60% RH, 4 weeks): 2.41 % area
Total Impurities ([4]; 25° C./60% RH, 4 weeks): 2.53 % area
RRT 0.970 impurity ([4]; 25° C./60% RH, 8 weeks): 0.10 % area
RRT 1.000 (HBI-3808) ([4]; 25° C./60% RH, 8 weeks): 96.99 % area
RRT 1.025 (Isomer of HBI-3808) ([4]; 25° C./60% RH, 8 weeks): 2.51 % area
RRT 1.767 impurity ([4]; 25° C./60% RH, 8 weeks): 0.29 % area
Total Impurities ([4]; 25° C./60% RH, 8 weeks): 3.01 % area
RRT 0.801 impurity ([4]; 25° C./60% RH, 13 weeks): 0.12 % area
RRT 1.000 (HBI-3808) ([4]; 25° C./60% RH, 13 weeks): 97.33 % area
RRT 1.025 (Isomer of HBI-3808) ([4]; 25° C./60% RH, 13 weeks): 2.37 % area
RRT 1.935 impurity ([4]; 25° C./60% RH, 13 weeks): 0.19 % area
Total Impurities ([4]; 25° C./60% RH, 13 weeks): 2.67 % area
RRT 1.000 (HBI-3808) ([4]; 25° C./60% RH, T = 0): 97.82 % area
RRT 1.025 (Isomer of HBI-3808) ([4]; 25° C./60% RH, T = 0): 2.18 % area
Total Impurities ([4]; 25° C./60% RH, T = 0): 2.18 % area
HPLC/ % area ([4]; 40° C./75% RH (open vial), 13 Weeks): 97.4 % area
XRPD [4, 10]: 1*
HPLC [4, 10]: 97.3 % area
XRPD [4, 11]: 1*
HPLC [4, 11]: 97.3 % area
XRPD ([4]; 40° C./75% RH (open vial), 4 Weeks): 1*
SMILES: C[C@@H]1CC[C@]2(C(=O)O)CC[C@]3(C)C(=CC[C@@H]4[C@@]5(C)C[C@@H](O)[C@H](O)[C@@](C)(CO)[C@@H]5CC[C@]43C)[C@@H]2[C@]1(C)O.NCCO [ethanolamine salt of HBI-3808, ETHANOLAMINE SALT OF 23-HYDROXYTORMENTIC ACID]
XRPD of recovered solids ([3]; target pH 3.0): consistent with HBI-3808 free acid of Pattern 1
XRPD of recovered solids ([3]; target pH 4.0): consistent with HBI-3808 free acid of Pattern 1
